Data reported in patent publication US5879942A, “Processing enzyme for polypeptide” (Kabushiki Kaisha Hayashibara Seibutsu Kagaku Kenkyujo, priority 1996, dated 1999).

Molecular target: T1, the present enzyme (Homo sapiens, UniProt P29466)
T1 construct: Using the anti-human ICE-p20 antibody and the antihuman ICE-p10 antibody; endogenous in cells
T1 sequence (P29466 120-297 limits assumed): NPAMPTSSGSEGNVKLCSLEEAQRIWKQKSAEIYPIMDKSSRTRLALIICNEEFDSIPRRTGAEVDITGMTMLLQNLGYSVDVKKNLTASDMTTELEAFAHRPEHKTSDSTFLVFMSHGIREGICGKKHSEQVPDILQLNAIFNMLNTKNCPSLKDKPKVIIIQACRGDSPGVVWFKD
T1 sequence (P29466 317-404 limits assumed): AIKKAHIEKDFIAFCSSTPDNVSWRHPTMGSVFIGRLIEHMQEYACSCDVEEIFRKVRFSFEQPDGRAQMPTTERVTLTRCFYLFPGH
Experiment: Activity of inhibitory agent on enzyme: conversion of precursor, Western Blotting
Assay type: biochemical
Settings: for band corresponding to the active form on Western Blotting: enzyme of Example 1 (THP-1 cells), 37° C. for 3 hours; for Inhibitory agent: enzyme obtainable from a human hematopoietic cell, general property; for enzyme activity inhibited: enzyme of Example 7 (HL-60 cells), methods in Examples 2-5
Description: A substrate solution was prepared by dissolving the precursor of the polypeptide in Example 4-1 in 100 mM Hepes buffer (pH 7.4), containing 10 v/v % glycerol, 0.1 w/v % CHAPS and 2 mM dithiothreitol, to give a concentration of 500 nM, and mixed with 350 units/ml of the enzyme solution in Example 1, followed by the incubation at 37° C. At 0 min, 10 min, 30 min, one hour, 3 hours, 6 hours and 18 hours after initiating the incubation, a portion of the reaction mixture was sampled at each sampling time and admixed with iodoacetamide to give a final concentration of 200 μg/ml to suspend the reaction. The Western Blotting method using the monoclonal antibody, as disclosed in Japanese Patent Application No.231,598/96 applied by the same applicant of the present invention, was applied to the reaction mixture to study the change on passage of time during the conversion of the precursor into the active form.
In the conversion method for precursor in Example 4-2, the present enzyme in Example 1 was admixed with 5 μM Ac-YVAD-CHO or 650 μM iodoacetamide and reacted at 37° C. for 3 hours.

Row | SMILES | band corresponding to the active form on Western Blotting (5 μM Ac-YVAD-CHO) | Inhibitory agent | enzyme activity inhibited | band corresponding to the active form on Western Blotting (650 μM iodoacetamide)
1 | CC(=O)N[C@@H](Cc1ccc(O)cc1)C(=O)N[C@H](C(=O)N[C@@H](C)C(=O)N[C@H](C=O)CC(=O)O)C(C)C [Ac-YVAD-CHO, acetyl-L-tyrosyl-L-varyl-L-alanyl-L-aspart-1-al] | no band corresponding to the active form was detected | inhibited | inhibited | –
2 | NC(=O)CI [iodoacetamide] | – | inhibited | inhibited | no band corresponding to the active form was detected
